Reference: the supplement of paper PMC11061612

Assays:
Assay in all cases: combination Emax (second highest fraction inhibited in the dose matrix, 72 h); higher = more inhibition; extreme values may be limits of the assay
[1] = system: NCI-H2452 (Mesothelioma)
Outline: (§1)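 Cell lines in DMEM/F12 or RPMI with 10% FBS were plated in 1536-well plates, held 24 hours at 37°C, 5% CO2, then given two-drug dose matrices for 72 hours (DMSO typically 0.2%). Viability was read by CellTiter-Glo 2.0 luminescence and scaled as inhibition from 0 (vehicle wells) to 1 (blank wells). Combination Emax is the second-highest inhibition in the matrix; Bliss excess is observed combination effect minus expected EA + EB − EA·EB, EA and EB being single-agent effects.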

[2] = system: KNS-62 (Squamous Cell Lung Carcinoma)
Outline: as §1

[3] = system: NCI-H1048 (Small Cell Lung Carcinoma)
Outline: as §1

[4] = system: IGROV-1 (Ovarian Carcinoma)
Outline: as §1

[5] = system: C32 (Melanoma)
Outline: as §1

[6] = system: NCI-H1648 (Lung Adenocarcinoma)
Outline: as §1

[7] = system: L-363 (Plasma Cell Myeloma)
Outline: as §1

[8] = system: A375 (Melanoma)
Outline: as §1

[9] = system: MRK-nu-1 (Breast Carcinoma)
Outline: as §1

[10] = system: DK-MG (Glioblastoma)
Outline: as §1

[11] = system: GCIY (Gastric Carcinoma)
Outline: as §1

[12] = system: BC-1 (B-Cell Non-Hodgkin's Lymphoma)
Outline: as §1

[13] = system: GRANTA-519 (B-Cell Non-Hodgkin's Lymphoma)
Outline: as §1

[14] = system: SBC-5 (Small Cell Lung Carcinoma)
Outline: as §1

[15] = system: NCI-H2023 (Non-Small Cell Lung Carcinoma)
Outline: as §1

[16] = system: NCI-H1435 (Non-Small Cell Lung Carcinoma)
Outline: as §1

[17] = system: NCI-H2009 (Lung Adenocarcinoma)
Outline: as §1

[18] = system: Daudi (Burkitt's Lymphoma)
Outline: as §1

[19] = system: TOV-21G (Ovarian Carcinoma)
Outline: as §1

[20] = system: OCI-M1 (Acute Myeloid Leukemia)
Outline: as §1

## CC1(C)CCC(CN2CCN(c3ccc(C(=O)NS(=O)(=O)c4ccc(NCC5CCOCC5)c([N+](=O)[O-])c4)c(Oc4cnc5[nH]ccc5c4)c3)CC2)=C(c2ccc(Cl)cc2)C1 [Venetoclax] + Cn1cnc2c(F)c(Nc3ccc(Br)cc3Cl)c(C(=O)NOCCO)cc21 [Selumetinib] (first compound max 1 µM, 7x7, partner max 3 µM)
[1]
  combination Emax: 0.181
[2]
  combination Emax: 0.253
[3]
  combination Emax: 0.153
[4]
  combination Emax: 0.595
[5]
  combination Emax: 0.941
[6]
  combination Emax: 0.496
[7]
  combination Emax: 0.833
[8]
  combination Emax: 0.686
[9]
  combination Emax: 0.235
[10]
  combination Emax: 0.362
[11]
  combination Emax: 0.514
[12]
  combination Emax: 0.408
[13]
  combination Emax: 0.323
[14]
  combination Emax: 0.18
[15]
  combination Emax: 0.177
[16]
  combination Emax: 0.156
[17]
  combination Emax: 0.184
[18]
  combination Emax: 0.115
[19]
  combination Emax: 0.216
[20]
  combination Emax: 0.483
